Experimental data as given in US8828401B2, “Cytotoxic peptides and antibody drug conjugates thereof” (Pfizer Inc., priority 2011, dated 2014).
Starred links: 1 amine or outer side, 2 acyl side, 3 side chain; linkers in the order of their positions; H or OH if unused. Non-standard residues stand in square brackets, D forms with d. Residues, ends and D or L forms follow the SMILES beside them. *: point of attachment. Dolaproine = CO[C@@H]([C@@H]1CCCN1)[C@@H](C)C(=O)O; X5 = O=C([C@@H](N[*:1])C1(c2ccccc2)CC1)[*:2]; X2 = O=C([C@H](N[*:1])C1(c2ccccc2)CC1)[*:2]; Dil = CC[C@H](C)[C@H](NC)[C@@H](CC(=O)O)OC; Phe(4-NH2) = Nc1ccc(C[C@H](N)C(=O)O)cc1; X9 = Cc1cc(-c2nc3cc(F)ccc3s2)ccc1N*; Doe = c1ccc(C[C@H](N*)c2nccs2)cc1; αMeP = C[C@@]1(C(=O)O)CCCN1; X13 = c1ccc(C2(CN*)CC2)cc1; X1 = CN1CCC[C@]1(C)C(=O)*; NMeAib = CNC(C)(C)C(=O)O; X4 = CN(C)C(C)(C)C(=O)*; Ac3c = NC1(C(=O)O)CC1; Aib = CC(C)(N)C(=O)O; NHtBu = CC(C)(C)N*; OtBu = CC(C)(C)O*

Experiments:
Assay in all cases: In vitro cell assay, MTS cell viability 96 hours after treatment
Type in all cases: cell-based
[1] = system: MDA-MB-361-DYT2 (breast cancer); settings: read-out: MDA-MB-361-DYT2 GMEAN IC50, MDA-MB-361-DYT2 cells; geometric mean; cytotoxic peptides
Method: (§1) Cells were treated with 3-fold serially diluted antibody-drug conjugates or free compounds (i.e., no antibody conjugated to the drug) in duplicate at 10 concentrations. Cell viability was determined by CellTiter 96® AQueous One Solution Cell Proliferation MTS Assay (Promega, Madison Wis.) 96 hours after treatment. Relative cell viability was determined as percentage of untreated control.

[2] = system: BT474 (breast cancer); settings: Homo sapiens, BT-474, BT474 cells; geometric mean; cytotoxic peptides; read-out: BT474 GMEAN IC50
Method: as §1

[3] = system: N87 (gastric cancer); settings: read-out: N87 GMEAN IC50, N87 cells; geometric mean; cytotoxic peptides
Method: as §1

SMILES	IC50 [1]	IC50 [2]	IC50 [3]
CC[C@H](C)[C@@H]([C@@H](CC(=O)N1CCC[C@H]1[C@H](OC)[C@@H](C)C(=O)N[C@@H](Cc1ccccc1)C(=O)O)OC)N(C)C(=O)[C@@H](NC(=O)C(C)(C)N(C)C)C(C)C [#229] (X4-V[Dil][Dolaproine]F-OH)	10.2 nM	18.4 nM	16.6 nM
CC[C@H](C)[C@@H]([C@@H](CC(=O)N1CCC[C@H]1[C@H](OC)[C@@H](C)C(=O)N[C@@H](Cc1ccccc1)C(=O)OC)OC)N(C)C(=O)[C@@H](NC(=O)[C@@]1(C)CCCN1C)C(C)C [#236] (X1-V[Dil][Dolaproine]F-OMe)	0.01 nM	0.02 nM	0.023 nM
CC[C@H](C)[C@@H]([C@@H](CC(=O)N1CCC[C@H]1[C@H](OC)[C@@H](C)C(=O)N[C@@H](Cc1ccccc1)c1nccs1)OC)N(C)C(=O)[C@@H](NC(=O)[C@@]1(F)CCNC1)C(C)C [#192, N˜2˜-{[(3R)-3-fluoropyrrolidin-3-yl]carbonyl}-N-[(3R,4S,5S)-3-methoxy-1-{(2S)-2-[(1R,2R)-1-methoxy-2-methyl-3-oxo-3-{[(1S)-2-phenyl-1-(1,3-thiazol-2-yl)ethyl]amino}propyl]pyrrolidin-1-yl}-5-methyl-1-oxoheptan-4-yl]-N-methyl-L-valinamide]	0.408 nM	0.262 nM	
CC[C@H](C)[C@@H]([C@@H](CC(=O)N1CCC[C@H]1[C@H](OC)[C@@H](C)C(=O)NCCC1C=CC=CC=C1)OC)N(C)C(=O)[C@@H](NC(=O)[C@]1(C)CCCCN1)C(C)C [#178, (2S)-N-[(2S)-1-{[(3R,4S,5S)-1-{(2S)-2-[(1R,2R)-3-{[2-(cyclohepta-2,4,6-trien-1-yl)ethyl]amino}-1-methoxy-2-methyl-3-oxopropyl]pyrrolidin-1-yl}-3-methoxy-5-methyl-1-oxoheptan-4-yl](methyl)amino}-3-methyl-1-oxobutan-2-yl]-2-methylpiperidine-2-carboxamide]	0.911 nM	0.968 nM	1.26 nM
CC[C@H](C)[C@@H]([C@@H](CC(=O)N1CCC[C@H]1[C@H](OC)[C@@H](C)C(=O)N[C@@H](Cc1ccccc1)C(=O)OC)OC)N(C)C(=O)[C@@H](NC(=O)[C@@]1(F)CCNC1)C(C)C [#172, methyl N-{(2R,3R)-3-[(2S)-1-{(3R,4S,5S)-4-[(N-{[(3R)-3-fluoropyrrolidin-3-yl]carbonyl}-L-valyl)(methyl)amino]-3-methoxy-5-methylheptanoyl}pyrrolidin-2-yl]-3-methoxy-2-methylpropanoyl}-L-phenylalaninate]	0.086 nM	0.057 nM	0.144 nM
CC[C@H](C)[C@@H]([C@@H](CC(=O)N1CCC[C@H]1[C@H](OC)[C@@H](C)C(=O)N[C@H](C(=O)OC)C1(c2ccccc2)CC1)OC)N(C)C(=O)[C@@H](NC(=O)C(C)(C)N)C(C)C [#223] (H-[Aib]V[Dil][Dolaproine][X5]-OMe)	10.9 nM	7.59 nM	13 nM
CC[C@H](C)[C@@H]([C@@H](CC(=O)N1CCC[C@H]1[C@H](OC)[C@@H](C)C(=S)N[C@@H](Cc1ccccc1)C(=O)O)OC)N(C)C(=O)[C@@H](NC(=O)C(C)(C)N)C(C)C [#44, 2-methylalanyl-N-[(3R,4S,5S)-1-{(2S)-2-[(1R,2R)-3-{[(1S)-1-carboxy-2-phenylethyl]amino}-1-methoxy-2-methyl-3-thioxopropyl]pyrrolidin-1-yl}-3-methoxy-5-methyl-1-oxoheptan-4-yl]-N-methyl-L-valinamide]	> 16.4 nM	7.12 nM	14.6 nM
CC[C@H](C)[C@@H]([C@@H](CC(=O)N1CCC[C@H]1[C@H](OC)[C@@H](C)C(=O)N[C@@H](C(=O)O)C1(c2ccccc2)CC1)OC)N(C)C(=O)[C@@H](NC(=O)C(C)(C)N)C(C)C [#230] (H-[Aib]V[Dil][Dolaproine][X2]-OH)	70.2 nM	≥ 100 nM	89.1 nM
CC[C@H](C)[C@@H]([C@@H](CC(=O)N1CCC[C@H]1[C@H](OC)[C@@H](C)C(=O)NCCC1C=CC=CC=C1)OC)N(C)C(=O)[C@@H](NC(=O)[C@@]1(C)CCCCN1)C(C)C [#180, (2R)—N-[(2S)-1-{[(3R,4S,5S)-1-{(2S)-2-[(1R,2R)-3-{[2-(cyclohepta-2,4,6-trien-1-yl)ethyl]amino}-1-methoxy-2-methyl-3-oxopropyl]pyrrolidin-1-yl}-3-methoxy-5-methyl-1-oxoheptan-4-yl](methyl)amino}-3-methyl-1-oxobutan-2-yl]-2-methylpiperidine-2-carboxamide]	0.113 nM	0.159 nM	
CC[C@H](C)[C@@H]([C@@H](CC(=O)N1CCC[C@H]1[C@H](OC)[C@@H](C)C(=O)N[C@@H](Cc1ccccc1)c1nccs1)OC)N(C)C(=O)[C@@H](NC(=O)[C@]1(F)CCNC1)C(C)C [#194, N˜2˜-{[(3S)-3-fluoropyrrolidin-3-yl]carbonyl}-N-[(3R,4S,5S)-3-methoxy-1-{(2S)-2-[(1R,2R)-1-methoxy-2-methyl-3-oxo-3-{[(1S)-2-phenyl-1-(1,3-thiazol-2-yl)ethyl]amino}propyl]pyrrolidin-1-yl}-5-methyl-1-oxoheptan-4-yl]-N-methyl-L-valinamide]	0.198 nM	0.134 nM	
CC[C@H](C)[C@@H]([C@@H](CC(=O)N1CCC[C@H]1[C@H](OC)[C@@H](C)C(=O)NCC1(c2ccccc2)CC1)OC)N(C)C(=O)[C@@H](NC(=O)C(C)(C)N)C(C)C [#60, 2-methylalanyl-N-[(3R,4S,5S)-3-methoxy-1-{(2S)-2-[(1R,2R)-1-methoxy-2-methyl-3-oxo-3-{[(1-phenylcyclopropyl)methyl]amino}propyl]pyrrolidin-1-yl}-5-methyl-1-oxoheptan-4-yl]-N-methyl-L-valinamide] (H-[Aib]V[Dil][Dolaproine]-X13)	0.957 nM	0.524 nM	
CC[C@H](C)[C@@H]([C@@H](CC(=O)N1CCC[C@H]1[C@H](OC)[C@@H](C)C(=O)N[C@@H](Cc1ccccc1)C(=O)NC(C)(C)C)OC)N(C)C(=O)[C@@H](NC(=O)C(C)(C)NC)C(C)C [#144, N,2-dimethylalanyl-N-{(1S,2R)-4-{(2S)-2-[(1R,2R)-3-{[(1S)-1-benzyl-2-(tert-butylamino)-2-oxoethyl]amino}-1-methoxy-2-methyl-3-oxopropyl]pyrrolidin-1-yl}-2-methoxy-1-[(1S)-1-methylpropyl]-4-oxobutyl}-N-methyl-L-valinamide] (H-[NMeAib]V[Dil][Dolaproine]F-NHtBu)	0.174 nM	0.172 nM	
CC[C@H](C)[C@@H]([C@@H](CC(=O)N1CCC[C@H]1[C@H](OC)[C@@H](C)C(=O)N[C@@H](Cc1ccccc1)C(=O)OC)OC)N(C)C(=O)[C@@H](NC(=O)[C@]1(C)CCCN1)C(C)C [#117, 2-methyl-L-prolyl-N-{(1S,2R)-4-{(2S)-2-[(1R,2R)-3-{[(1S)-1-benzyl-2-methoxy-2-oxoethyl]amino}-1-methoxy-2-methyl-3-oxopropyl]pyrrolidin-1-yl}-2-methoxy-1-[(1S)-1-methylpropyl]-4-oxobutyl}-N-methyl-L-valinamide] (H-[αMeP]V[Dil][Dolaproine]F-OMe)	0.118 nM	0.096 nM	
CC[C@H](C)[C@@H]([C@@H](CC(=O)N1CCC[C@H]1[C@H](OC)[C@@H](C)C(=O)N[C@@H](Cc1ccc(N)cc1)C(=O)OC)OC)N(C)C(=O)[C@@H](NC(=O)[C@@]1(C)CCCN1C)C(C)C [#201, 1,2-dimethyl-D-prolyl-N-[(3R,4S,5S)-1-{(2S)-2-[(1R,2R)-3-{[(2S)-3-(4-aminophenyl)-1-methoxy-1-oxopropan-2-yl]amino}-1-methoxy-2-methyl-3-oxopropyl]pyrrolidin-1-yl}-3-methoxy-5-methyl-1-oxoheptan-4-yl]-N-methyl-L-valinamide] (X1-V[Dil][Dolaproine][Phe(4-NH2)]-OMe)	0.121 nM	0.144 nM	
CC[C@H](C)[C@@H]([C@@H](CC(=O)N1CCC[C@H]1[C@H](OC)[C@@H](C)C(=O)N[C@@H](Cc1ccccc1)C(=O)Nc1ccc(-c2nc3cc(F)ccc3s2)cc1C)OC)N(C)C(=O)[C@@H](NC(=O)C(C)(C)N)C(C)C [#235] (H-[Aib]V[Dil][Dolaproine]F-X9)	1.28 nM	0.852 nM	
CC[C@H](C)[C@@H]([C@@H](CC(=O)N1CCC[C@H]1[C@H](OC)[C@@H](C)C(=O)N[C@@H](Cc1ccccc1)c1nccs1)OC)N(C)C(=O)[C@@H](NC(=O)C1(N)CC1)C(C)C [#51, N^2-[(1-aminocyclopropyl)carbonyl]-N-[(3R,4S,5S)-3-methoxy-1-{(2S)-2-[(1R,2R)-1-methoxy-2-methyl-3-oxo-3-{[(1S)-2-phenyl-1-(1,3-thiazol-2-yl)ethyl]amino}propyl]pyrrolidin-1-yl}-5-methyl-1-oxoheptan-4-yl]-N-methyl-L-valinamide] (H-[Ac3c]V[Dil][Dolaproine]-Doe)		< 0.599 nM	3.66 nM
CC[C@H](C)[C@@H]([C@@H](CC(=O)N1CCC[C@H]1[C@H](OC)[C@@H](C)C(=O)N[C@@H](Cc1ccccc1)C(=O)OC(C)(C)C)OC)N(C)C(=O)[C@@H](NC(=O)C(C)(C)NC)C(C)C [#130, N,2-dimethylalanyl-N-[(3R,4S,5S)-1-{(2S)-2-[(1R,2R)-3-{[(2S)-1-tert-butoxy-1-oxo-3-phenylpropan-2-yl]amino}-1-methoxy-2-methyl-3-oxopropyl]pyrrolidin-1-yl}-3-methoxy-5-methyl-1-oxoheptan-4-yl]-N-methyl-L-valinamide] (H-[NMeAib]V[Dil][Dolaproine]F-OtBu)	0.039 nM	0.05 nM	
